Data as given in PubChem BioAssay (NCI).
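Five compound concentrations were applied to cells in 96-well plates for 48 hours; endpoints were derived by simple linear interpolation of the resulting dose-response curve. GI50 marks 50% less growth. TGI: concentration producing complete growth inhibition.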

Legend:
Test in all cases: NCI anticancer screen, dose series, 48 h
A498 renal = tested on: A498 renal
786-0 renal = tested on: 786-0 renal
DU-145 prostate = tested on: DU-145 prostate
CAKI-1 renal = tested on: CAKI-1 renal
SNB-19 CNS = tested on: SNB-19 CNS
LOX IMVI melanoma = tested on: LOX IMVI melanoma
MALME-3M melanoma = tested on: MALME-3M melanoma
NCI-H522 lung = tested on: NCI-H522 lung
SK-MEL-2 melanoma = tested on: SK-MEL-2 melanoma
HOP-62 NSCLC = tested on: HOP-62 NSCLC
NCI-H460 lung = tested on: NCI-H460 lung
IGROV1 ovarian = tested on: IGROV1 ovarian
COLO 205 colon = tested on: COLO 205 colon
OVCAR-4 ovarian = tested on: OVCAR-4 ovarian
SK-MEL-28 melanoma = tested on: SK-MEL-28 melanoma
UACC-62 melanoma = tested on: UACC-62 melanoma
SR leukemia = tested on: SR leukemia
NCI/ADR-RES ovarian = tested on: NCI/ADR-RES ovarian
HCC-2998 colon = tested on: HCC-2998 colon
TK-10 renal = tested on: TK-10 renal
MCF7 breast = tested on: MCF7 breast
ACHN renal = tested on: ACHN renal
PC-3 prostate = tested on: PC-3 prostate
HCT-15 colon = tested on: HCT-15 colon
SK-OV-3 ovarian = tested on: SK-OV-3 ovarian
EKVX NSCLC = tested on: EKVX NSCLC
OVCAR-5 ovarian = tested on: OVCAR-5 ovarian
UACC-257 melanoma = tested on: UACC-257 melanoma
HOP-92 NSCLC = tested on: HOP-92 NSCLC
SF-268 CNS = tested on: SF-268 CNS
SK-MEL-5 melanoma = tested on: SK-MEL-5 melanoma
MOLT-4 leukemia = tested on: MOLT-4 leukemia
M14 melanoma = tested on: M14 melanoma
NCI-H226 lung = tested on: NCI-H226 lung
SN12C renal = tested on: SN12C renal
SF-539 CNS = tested on: SF-539 CNS
HCT-116 colon = tested on: HCT-116 colon
HS 578T breast = tested on: HS 578T breast
T-47D breast = tested on: T-47D breast
UO-31 renal = tested on: UO-31 renal
OVCAR-8 ovarian = tested on: OVCAR-8 ovarian
KM12 colon = tested on: KM12 colon
SW-620 colon = tested on: SW-620 colon
A549 NSCLC = tested on: A549 NSCLC
RXF 393 renal = tested on: RXF 393 renal
BT-549 breast = tested on: BT-549 breast
NCI-H23 lung = tested on: NCI-H23 lung
SF-295 CNS = tested on: SF-295 CNS
U251 CNS = tested on: U251 CNS
RPMI-8226 leukemia = tested on: RPMI-8226 leukemia
HT29 colon = tested on: HT29 colon
K-562 leukemia = tested on: K-562 leukemia
SNB-75 CNS = tested on: SNB-75 CNS
MDA-MB-435 = tested on: MDA-MB-435
CCRF-CEM leukemia = tested on: CCRF-CEM leukemia
OVCAR-3 ovarian = tested on: OVCAR-3 ovarian
MDA-MB-231 breast = tested on: MDA-MB-231 breast
HL-60(TB) leukemia = tested on: HL-60(TB) leukemia

SMILES: CCc1ccc(Oc2c(-c3ccc(OCc4ccc(Cl)cc4)cc3O)n[nH]c2C(F)(F)F)cc1
- GI50 (A498 renal): 1870 nM
- TGI (A498 renal): 3820 nM
- GI50 (786-0 renal): 1720 nM
- TGI (786-0 renal): 3270 nM
- GI50 (DU-145 prostate): 2640 nM
- TGI (DU-145 prostate): 7440 nM
- GI50 (CAKI-1 renal): 2290 nM
- TGI (CAKI-1 renal): 5950 nM
- GI50 (SNB-19 CNS): 1980 nM
- TGI (SNB-19 CNS): 4210 nM
- GI50 (LOX IMVI melanoma): 1630 nM
- TGI (LOX IMVI melanoma): 3010 nM
- GI50 (MALME-3M melanoma): 1780 nM
- TGI (MALME-3M melanoma): 3470 nM
- GI50 (NCI-H522 lung): 1720 nM
- TGI (NCI-H522 lung): 4330 nM
- GI50 (SK-MEL-2 melanoma): 1750 nM
- TGI (SK-MEL-2 melanoma): 3740 nM
- GI50 (HOP-62 NSCLC): 1870 nM
- TGI (HOP-62 NSCLC): 3480 nM
- GI50 (NCI-H460 lung): 2050 nM
- TGI (NCI-H460 lung): 4100 nM
- GI50 (IGROV1 ovarian): 2330 nM
- TGI (IGROV1 ovarian): 6870 nM
- GI50 (COLO 205 colon): 1710 nM
- TGI (COLO 205 colon): 3270 nM
- GI50 (OVCAR-4 ovarian): 1620 nM
- TGI (OVCAR-4 ovarian): 3310 nM
- GI50 (SK-MEL-28 melanoma): 1820 nM
- TGI (SK-MEL-28 melanoma): 3370 nM
- GI50 (UACC-62 melanoma): 1800 nM
- TGI (UACC-62 melanoma): 4810 nM
- GI50 (SR leukemia): 2780 nM
- TGI (SR leukemia): 6920 nM
- GI50 (NCI/ADR-RES ovarian): 2110 nM
- TGI (NCI/ADR-RES ovarian): 4850 nM
- GI50 (HCC-2998 colon): 1930 nM
- TGI (HCC-2998 colon): 4000 nM
- GI50 (TK-10 renal): 2000 nM
- TGI (TK-10 renal): 4750 nM
- GI50 (MCF7 breast): 2000 nM
- TGI (MCF7 breast): 5650 nM
- GI50 (ACHN renal): 1890 nM
- TGI (ACHN renal): 4000 nM
- GI50 (PC-3 prostate): 1880 nM
- TGI (PC-3 prostate): 3860 nM
- GI50 (HCT-15 colon): 1600 nM
- TGI (HCT-15 colon): 3210 nM
- GI50 (SK-OV-3 ovarian): 2430 nM
- TGI (SK-OV-3 ovarian): 7010 nM
- GI50 (EKVX NSCLC): 1890 nM
- TGI (EKVX NSCLC): 4340 nM
- GI50 (OVCAR-5 ovarian): 1890 nM
- TGI (OVCAR-5 ovarian): 3950 nM
- GI50 (UACC-257 melanoma): 1840 nM
- TGI (UACC-257 melanoma): 3800 nM
- GI50 (HOP-92 NSCLC): 2030 nM
- TGI (HOP-92 NSCLC): 4770 nM
- GI50 (SF-268 CNS): 1740 nM
- TGI (SF-268 CNS): 3390 nM
- GI50 (SK-MEL-5 melanoma): 1660 nM
- TGI (SK-MEL-5 melanoma): 3030 nM
- GI50 (MOLT-4 leukemia): 2460 nM
- TGI (MOLT-4 leukemia): 5640 nM
- GI50 (M14 melanoma): 1880 nM
- TGI (M14 melanoma): 3710 nM
- GI50 (NCI-H226 lung): 2110 nM
- TGI (NCI-H226 lung): 5260 nM
- GI50 (SN12C renal): 1720 nM
- TGI (SN12C renal): 3350 nM
- GI50 (SF-539 CNS): 1960 nM
- TGI (SF-539 CNS): 4410 nM
- GI50 (HCT-116 colon): 1670 nM
- TGI (HCT-116 colon): 3190 nM
- GI50 (HS 578T breast): 2660 nM
- TGI (HS 578T breast): 8110 nM
- GI50 (T-47D breast): 1710 nM
- TGI (T-47D breast): 4250 nM
- GI50 (UO-31 renal): 1680 nM
- TGI (UO-31 renal): 3890 nM
- GI50 (OVCAR-8 ovarian): 2520 nM
- TGI (OVCAR-8 ovarian): 5870 nM
- GI50 (KM12 colon): 1770 nM
- TGI (KM12 colon): 3350 nM
- GI50 (SW-620 colon): 2050 nM
- TGI (SW-620 colon): 4450 nM
- GI50 (A549 NSCLC): 2020 nM
- TGI (A549 NSCLC): 4220 nM
- GI50 (RXF 393 renal): 1650 nM
- TGI (RXF 393 renal): 3160 nM
- GI50 (BT-549 breast): 2040 nM
- TGI (BT-549 breast): 3950 nM
- GI50 (NCI-H23 lung): 1670 nM
- TGI (NCI-H23 lung): 3350 nM
- GI50 (SF-295 CNS): 2040 nM
- TGI (SF-295 CNS): 4740 nM
- GI50 (U251 CNS): 1790 nM
- TGI (U251 CNS): 3220 nM
- GI50 (RPMI-8226 leukemia): 2330 nM
- TGI (RPMI-8226 leukemia): 5250 nM
- GI50 (HT29 colon): 2000 nM
- TGI (HT29 colon): 3950 nM
- GI50 (K-562 leukemia): 2320 nM
- TGI (K-562 leukemia): 5370 nM
- GI50 (SNB-75 CNS): 1480 nM
- TGI (SNB-75 CNS): 5800 nM
- GI50 (MDA-MB-435): 1800 nM
- TGI (MDA-MB-435): 3490 nM
- GI50 (CCRF-CEM leukemia): 2920 nM
- TGI (CCRF-CEM leukemia): 7220 nM
- GI50 (OVCAR-3 ovarian): 1780 nM
- TGI (OVCAR-3 ovarian): 3280 nM
- GI50 (MDA-MB-231 breast): 1910 nM
- TGI (MDA-MB-231 breast): 3960 nM
- GI50 (HL-60(TB) leukemia): 2410 nM
- TGI (HL-60(TB) leukemia): 4860 nM
